Reference: publication PMC3486420, “In Vitro and In Vivo Characterizations of Chiglitazar, a Newly Identified PPAR Pan-Agonist” (PPAR Research, 2012)

How the values were obtained:
KKAy mice = assay: Gene expression by RT-PCR in tissues of treated KKAy mice; assay type: in vivo, mouse; conditions: 12 days oral
Method: Total RNA was extracted from cells or tissues with an RNeasy minikit (Qiagen, Valencia, CA, USA). The first-strand cDNA was synthesized using the oligo(dT) primers, followed by using SuperScript II reverse transcriptase (Invitrogen) according to the manufacturer's instructions. The PCR amplifications were performed in 10 μL of reaction mixture volume containing 0.8 μL of cDNA, 10 mM Tris-HCl (pH 8.3), 50 mM KCl, 1.5 mM MgCl2, 0.1% Triton X-100, 0.2 mM deoxynucleotide triphosphates, 0.4 μM primers, and 0.25 U of Taq polymerase (TaKaRa Biotechnology Co., Ltd, China). Taq DNA polymerase was added to each tube after a treatment of 2 min at 94°C. This was followed by 22–30 cycles of denaturation (23 s at 94°C), annealing (20 s at 55°C), extension (30 s at 72°C), and a final extension step of 2 min. PCR products were analyzed by electrophoresis on a 1.5% agarose gel stained with ethidium bromide.
Male db/db mice (BKS.Cg-m +/+ LEPR^db) in 6-7 weeks were purchased from The Jackson Laboratory (Bar Harbor, ME, USA). Male KKAy and C57BL/6J mice in 8–10 weeks were obtained from the Institute of Animal Science, Chinese Academy of Medical Sciences and Peking Union Medical College (Beijing, China). Animals were randomly sorted into different treatment groups (8–10 per group). […]. Plasma glucose levels were examined at various time points by Accu-Chek Advantage II Glucose Strips (Roche Diagnostics, Basel, Switzerland) and measured by Accu-Chek Advantage (Roche Diagnostics). Animals were sacrificed 24 h after the last dosing and abdominal fat pad, liver, and skeletal muscle from KKAy mice and abdominal fat pad from db/db mice were taken for gene expression analysis.
Figure 3 In vivo regulation of gene expression by chiglitazar. […]. Equal amount of total RNA from each mouse in the same group was mixed and subjected to RT-PCR analysis for the indicated genes. […]. Total RNA was isolated from individual animal tissues and subjected to the RT-PCR analysis independently for the indicated genes.

PPARδ = biological target: T1, PPARδ (Homo sapiens, UniProt Q03181); assay: PPARδ transactivation reporter gene assay in U2OS cells; assay type: cell-based; conditions: U2OS cells
T1 construct: expressed in transfected cells; host or cells: SMMC-7721 or U2OS
T1 sequence (Q03181 1-441): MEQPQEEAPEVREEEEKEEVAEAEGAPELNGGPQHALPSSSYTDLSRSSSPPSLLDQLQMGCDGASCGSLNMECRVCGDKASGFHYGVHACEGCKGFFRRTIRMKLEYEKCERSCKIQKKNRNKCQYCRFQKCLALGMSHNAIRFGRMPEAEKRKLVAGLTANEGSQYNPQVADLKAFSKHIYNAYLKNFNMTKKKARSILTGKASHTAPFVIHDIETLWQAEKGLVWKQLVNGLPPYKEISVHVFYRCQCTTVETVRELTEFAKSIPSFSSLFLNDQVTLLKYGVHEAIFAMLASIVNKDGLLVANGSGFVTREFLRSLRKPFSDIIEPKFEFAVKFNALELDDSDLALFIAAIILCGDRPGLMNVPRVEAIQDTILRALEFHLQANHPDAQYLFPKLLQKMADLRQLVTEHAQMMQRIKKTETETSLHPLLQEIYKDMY
T1 sequence (P19793 1-462 partner): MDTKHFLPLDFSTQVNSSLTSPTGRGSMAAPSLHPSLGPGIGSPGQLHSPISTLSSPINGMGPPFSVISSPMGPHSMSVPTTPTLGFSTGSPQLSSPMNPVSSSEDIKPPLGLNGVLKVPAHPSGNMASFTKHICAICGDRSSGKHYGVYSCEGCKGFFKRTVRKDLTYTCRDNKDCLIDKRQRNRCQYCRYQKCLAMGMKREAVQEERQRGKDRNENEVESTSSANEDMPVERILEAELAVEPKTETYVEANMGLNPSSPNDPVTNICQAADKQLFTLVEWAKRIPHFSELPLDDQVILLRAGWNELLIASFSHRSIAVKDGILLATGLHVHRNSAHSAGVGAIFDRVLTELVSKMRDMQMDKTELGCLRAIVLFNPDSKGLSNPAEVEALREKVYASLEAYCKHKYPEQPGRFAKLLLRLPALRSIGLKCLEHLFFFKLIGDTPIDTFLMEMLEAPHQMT

db/db mice = assay: Oral treatment of diabetic db/db mice (glucose, insulin, IPGTT, body and fat pad weight); assay type: in vivo, mouse
From the text: Male db/db mice (BKS.Cg-m +/+ LEPR^db) in 6-7 weeks were purchased from The Jackson Laboratory (Bar Harbor, ME, USA). Male KKAy and C57BL/6J mice in 8–10 weeks were obtained from the Institute of Animal Science, Chinese Academy of Medical Sciences and Peking Union Medical College (Beijing, China). Animals were randomly sorted into different treatment groups (8–10 per group). […] Plasma glucose levels were examined at various time points by Accu-Chek Advantage II Glucose Strips (Roche Diagnostics, Basel, Switzerland) and measured by Accu-Chek Advantage (Roche Diagnostics). Animals were sacrificed 24 h after the last dosing and abdominal fat pad, liver, and skeletal muscle from KKAy mice and abdominal fat pad from db/db mice were taken for gene expression analysis.
For intraperitoneal glucose tolerance test (IPGTT), db/db mice dosed for 14 days were fasted overnight, followed by an intraperitoneal injection of glucose (2 g kg^−1). Blood samples were taken for measurement of plasma glucose before and 30, 60, and 120 min after the glucose load. The area under curves (AUC) was calculated to evaluate the IPGTT results. To determine plasma insulin concentrations, blood samples were taken from db/db mice dosed with different reagents or vehicle for 0, 3, 6, and 9 d, and insulin levels were measured by Insulin ELISA Kit (Roche Diagnostics) following the instructions from the manufacture.
Figure 2 In vivo effects on blood glucose control and insulin sensitization of chiglitazar. Male db/db (a, c and d) and male KKAy mice (b) were treated with vehicle (Ctrl), rosiglitazone (Ros), or chiglitazar (Chi) at the indicated doses for various days. Plasma glucose (a and b) and insulin (c) levels were measured at the indicated time points. […] Data are expressed as mean ± SE.
Figure 4 Influence in body and abdominal fat pad weights of chiglitazar. […] Changes in body weight were evaluated at the indicated days (b), and the fat pads were weighed from the scarified animals at day 15 (c). ^# P < 0.05 compared with day 0, and *P < 0.05 compared with Ctrl. n = 8 per group for KKAy, and n = 10 per group for db/db. Data are expressed as mean ± SE.

[1] = chiglitazar 20 mg kg^−1, rosiglitazone 5 mg kg^−1

Q: Which “Expression of ACADL, HSL, GLUT4 and PPARγ in liver and skeletal muscle” value (KKAy mice; [1]) does the source give for `O=C(c1ccc(F)cc1)c1ccccc1NC(Cc1ccc(OCCn2c3ccccc3c3ccccc32)cc1)C(=O)O` (centres unmarked) [Chi, 2-[(2-(4-fluorobenzoyl)phenyl)amino]-3-[4-(2-carbazolylethoxy)-phenyl]-propionic acid] here?
A: The value was “not affected”.

Q: And the “Expression of genes involved in PPARγ-mediated insulin sensitization in adipose tissue” value (KKAy mice; [1])?
A: The value was “almost identically up-regulated”.

Q: And the “Expression of PPARα and VLCS in adipose tissue” value (KKAy mice; chiglitazar 20 mg kg^−1 compared with rosiglitazone 5 mg kg^−1)?
A: Its value is “greater degree of upregulation”.

Q: And the “Expression of leptin and SREBP1 in liver and skeletal muscle” value (KKAy mice; chiglitazar 20 mg kg^−1 vs rosiglitazone 5 mg kg^−1)?
A: Its value is “more upregulated”.

Q: What about the EC50 (PPARδ; 24 h treatment, luciferase reporter, hRXR cotransfected, ia: inactive at 10 μM, read-out: PPARδ EC50) of the same compound?
A: The EC50 was 1500 ± 200 nM.

Q: What about the “PPARδ % Max” value (PPARδ; max response compared with 2-Bro at 10 μM) of the same compound?
A: The value was 244%.

Q: And the “Glucose tolerance (IPGTT)” value (db/db mice; db/db mice, 20 mg kg^−1 oral daily, 14 days)?
A: Its value is “increased”.

Q: What about the Body weight (db/db mice; db/db mice, 5, 10 and 20 mg kg^−1 oral daily, 14 days) of the same compound?
A: The Body weight was “dose-dependent weight gain”.

Q: And the “Abdominal fat pad weights” value (db/db mice; db/db mice, chiglitazar 20 mg kg^−1 vs rosiglitazone 5 mg kg^−1, 14 days)?
A: Its value is “less increase”.

Q: And the “BG (blood glucose) levels” value (db/db mice; db/db mice, oral daily, 5 to 20 mg kg^−1, 14 days)?
A: Its value is “significantly lowered”.

Q: And the Plasma insulin concentrations (db/db mice; db/db mice, oral daily, different doses, compared with vehicle control)?
A: Its Plasma insulin concentrations is “markedly decreased”.
